Results as given in patent US6989263B1, “Method for identifying and using compounds that inactivate HIV-1 and other retroviruses by attacking highly conserved zinc fingers in the viral nucleocapsid protein” (The United States of America as represented by the …, priority 1994, dated 2006).
“Also recorded” adds a separate entry of the source. Read-outs that look alike come from different tables or passages of the source.

What was measured:
p7NC = biological target: T1, p7NC (Human immunodeficiency virus type 1 group M subtype B, UniProt P05888); test: HPLC analysis of reaction products of purified p7NC with reagent; type: biochemical, HIV-1; set-up: key to Protein (HPLC): reaction products / Protein (HPLC): reaction rate: formation of non-native, intra-protein disulfide links (designated “Disulfides”); some of the reagents form adducts with the cysteine residues as well (designated “Adducts”); slow: “Slow” reactions are those in which greater than 10% of the p7NC protein remained in its native form after the 10 minute incubation with reagent; very slow: “Very slow” reactions are those in which greater than 50% of the p7NC protein remained in its native form after the 10 minute incubation with reagent; fast: “Fast” reactions result in complete transformation of the p7NC protein to non-native conformations during the 10 minute incubation period; details: for Protein (HPLC): reaction products: 63 μM p7NC, 6 reagent : 1 protein, 10 minutes
T1 construct: The NC protein of HIV-1 (MN) p7NC was expressed in E. coli; made in house; host or cells: E. coli (vector pMAL-c)
Source text: Highly purified retroviral NC proteins can be produced by expression from vectors generated through recombinant DNA technology. These proteins when reconstituted with zinc (see, Summers, et al., Protein Science 1:563–567 (1992) for methods), provide the source of the NC proteins containing the zinc fingers that are the targets for attack by the compounds of this invention. When the zinc fingers in NC proteins react with identified compounds, the reaction produces a covalent change in the NC protein, and the modified protein can be separated from the unreacted protein by, for example, reversed phase HPLC.
Samples of p7NC and apo-p7 were reacted with varying amounts of cupric chloride and resulting products separated by HPLC. The reactions were carried out using 44.3 μM protein (p7NC or apo-p7) in 0.1 M Tris-HCl, pH 7.4, for 6 minutes at room temperature with varying concentrations of CuCl2 to achieve the indicated ratios of reactants, in a final volume of 0.7 ml. Chromatography was carried out on the resulting products at pH 2 (0.05% trifluoroacetic acid) on μBondapak™ C-18 (3.9×300 mm) at 1.0 ml/minute using an acetonitrile gradient (0–17%, 20 ml; 17–20%, 60 ml; 20–60%, 10 ml). Elution positions of unreacted protein (p7NC or apo-p7) are indicated as apo-p7.
A two-fold excess of NOBA was reacted with p7NC, and the products were separated by HPLC (FIG. 10) as described above for Cu^+2 and p7NC. Elution positions for the reactants (NOBA and unreacted p7NC) and products, reacted p7NC, NOBA, HABA and AzoxyBA are indicated and an elution profile is included in FIG. 10. NOBA and AzoxyBA were supplied by Octamer, Inc. (Mill Valley, Calif.) and used as HPLC standards.
The disulfide reagent of choice (each available from the Aldrich Chemical Company (Milwaukee, Wis.)) was incubated for 10 minutes with purified p7NC protein (63 μM) at a ratio of 6 molecules of reagent to 1 molecule of NC protein (there are 6 cysteine thiols per NC protein). The formation of non-native protein conformations was monitored by HPLC as described above. […] Generally, the inactivation proceeds by formation of non-native, intra-protein disulfide links (designated “Disulfides”), but some of the reagents form adducts with the cysteine residues as well (designated “Adducts”). “Slow” reactions are those in which greater than 10% of the p7NC protein remained in its native form after the 10 minute incubation with reagent. “Very slow” reactions are those in which greater than 50% of the p7NC protein remained in its native form after the 10 minute incubation with reagent. “Fast” reactions result in complete transformation of the p7NC protein to non-native conformations during the 10 minute incubation period.

[1] = cited from earlier work
[2] = system: SSFV (spleen focus forming virus); test: Survival of mice infected with SSFV; type: in vivo; details: oral doses, versus infected untreated mice
Source text: Mice susceptible to the retrovirus SSFV (spleen focus forming virus) when injected with the virus die within 35–40 days as a result of virally-mediated transformation of cells of the spleen.

[3] = biological target: T2, HIV NC protein in intact virus (Human immunodeficiency virus type 1 group M subtype B, UniProt P05888); test: Cross-linking of NC protein in intact HIV (non-reducing gel-mobility shift, western blot); type: biochemical, HIV-1; details: for X-link T-½ (min), HIV NC protein (top number): intact HIV generally 12.5 μM, reagent generally 25 μM
T2 construct: endogenous in cells; host or cells: intact HIV virions
Source text: Purified concentrated retrovirus and antisera against the purified NC protein of the virus can be used to test the ability of a specific compound to penetrate the virus and react with the NC protein by forming disulfide complexes in the core of the virus. The compound is mixed with the whole retrovirus under reaction conditions appropriate for the compound. The virus is then removed from the reagent by centrifugation and disrupted in, e.g, standard SDS-PAGE sample buffer with (reduced) and without (non-reduced) 2-mercaptoethanol. The viral proteins are then separated by standard SDS-PAGE and the sample examined for the presence or absence of the monomeric NC protein in the non-reduced sample. Depending upon the virus used in the experiment and the conditions of electrophoresis, the NC protein can be visualized by protein staining methods, or by immuno-blot (e.g., western) methods. Compounds which react with the NC protein by attacking the zinc finger complexes and forming disulfide cross-linked products (i.e., which generate multimers in the mobility shift assay) inactivate the virus. Thus, compounds of interest (i.e., those which cause cross-linking) reduced the amount of monomeric NC protein detected.
In order to determine whether HIV-1MN was inactivated by NOBA, the virus was incubated with varying concentrations of NOBA (3.0, 0.3, 0.03 and 0 mM) as in Table 1. The reaction products were pelleted by centrifugation, and separated by SDS-PAGE under reducing (2% 2-mercaptoethanol, panel A), or non-reducing conditions (panel B). p7NC was visualized by immunoblot analysis using monospecific rabbit antisera to the purified NC proteins as per L. E. Henderson et al., J. Virol. 66:1856 (1992).
Disulfide reagents were further tested for their ability to disrupt NC structure in the virus, based on their ability to cause inter-NC cysteine disulfide bonds (i.e., cross-linking) in the intact virus. The formation of inter-NC cysteine disulfides creates NC multimers, which migrate through a non-reducing gel at a different rate than NC monomers, as described above. Intact HIV virus (generally 12.5 μM) was exposed to the specified reagent (generally 25 μM) for varying lengths of time and electrophoresed through a non-reducing SDS-polyacrylamide gel. HIV NC monomers and multimers were visualized by western blot analysis as described above in Example 3. The approximate time required to cross-link one-half of the NC proteins in the virus at the specified reaction conditions was then determined. […] The top number in the cells of the X-link column in Table 2 refers to the approximate time in minutes required for one-half of the HIV NC proteins to become cross-linked.

[4] = biological target: T3, p11 Nucleocapsid Protein (p11NC) (Equine infectious anemia virus, UniProt P69732); test: Cross-linking of p11NC in intact EIAV particles (gel-mobility shift); type: biochemical; details: intact EIAV (50 μM), 4× the HIV assay concentrations
T3 construct: a variety of disulfide reagents cross-link the p11NC protein in intact viral particles; endogenous in cells; host or cells: intact EIAV particles
T3 sequence (P69732 360-435): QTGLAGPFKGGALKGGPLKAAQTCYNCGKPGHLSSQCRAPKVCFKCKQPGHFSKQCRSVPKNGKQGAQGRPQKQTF
Source text: Essentially the same strategy was employed to analyze the ability of the various disulfide reagents to cross-link the p11 Nucleocapsid Protein (p11NC) in intact Equine Infectious Anemia Virus (EIAV) particles. The advantages of working with EIAV include the fact that it is not a human pathogen, and that the p11NC protein can be visualized by simple coomassie-blue staining after performing the gel-mobility shift assay (rather than by western blotting as for HIV) described above. The reaction conditions were essentially the same for the EIAV assays as for the HIV assays described above, except that the concentration of virus and disulfide reagent was 4× the concentrations used in the HIV assay above. The second number in each cell in the X-link column in Table 2 represents the time required to cross-link one-half of the p11NC protein in the intact viral particles. […] The bottom number in each cell of the X-link column, unless otherwise indicated, represents the concentration of EIAV used in the assay. Blank cells throughout Table 2 indicate that the compound has yet to be tested for the specified property.

HIV-1 [5] = test: microbe, parasite or virus in culture; details: Human immunodeficiency virus 1, read-out: TCID (Virus): concentration of reagent required to inactivate half of a standardized number of HIV-1 virus particles
Procedure: (§1) Concomitantly, the drug treated virions are tested for activity. The virions are suspended in media (rather than solubilized) and added to target cells. The cultures are then examined to determine whether the virions are still active.

HIV-1 [6] = details: PCR and viral inactivation assays
Procedure: as §1

Row | SMILES | reaction with purified p7NC (HPLC), in words (p7NC) | Protein (HPLC): reaction products (p7NC) | Toxicity (LD-50, mouse) ([1]; IP) | Toxicity (LD-50, mouse) ([1]; oral) | survival after SSFV infection [2] | X-link T-½ (min), HIV NC protein (top number) [3] | X-link T-½ (min), EIAV p11NC (second number) [4] | IC50 (HIV-1 [5]) | inactivation of HIV-1 virus / infectivity, in words (HIV-1 [6]) | inactivation of HIV-1 virus / infectivity, in words (HIV-1 [6]; listed as Tetraethylthiuram disulfide) | cross-linking of the HIV-1 NC protein in intact virus (gel-mobility shift), in words [3]
1 | CCN(CC)C(=S)SSC(=S)N(CC)CC [Tetraethylthiuram Disulfide, reference compound] | reacts with p7NC to form oxidized p7 (disulfides) | Disulfides | 75 mg/kg | 1980 mg/kg | survived SSFV infection significantly longer | ~15 min | ~15 min | 66 µM | inactivates the virus | inactivate HIV-1 virus | –
2 | S=C(SSC(=S)N1CCCCC1)N1CCCCC1 [Dicyclopentamethylenethiuram Disulfide] | – | Disulfides | – | 2870 mg/kg | – | <<15 min | ~10 min | 4 µM | – | – | caused a cross-linking of the HIV-1 NC protein
3 | CN(C)c1ccc(SSc2ccc(N(C)C)cc2)cc1 [4-(dimethylamino)phenyl disulfide] | – | (negative) | – | – | – | – | – | 17.5 µM | – | – | –
4 | O=C(SSC(=O)c1ccccc1)c1ccccc1 [Benzoyl Disulfide] | – | Disulfides; also recorded: Adducts | – | – | – | – | – | 68 µM | – | – | –
